Assays:
[1] = tested on: purified NO synthase from pig cerebellum or from pig liver; experiment: Activity assay of purified NOS (3H-L-arginine to 3H-L-citrulline conversion); assay type: biochemical; conditions: substance 100 μM, in the presence of 2 μM tetrahydrobiopterin, 15 min at 37° C.
Method: The inhibition of the activity of purified nitric oxide synthase (NOS) by compounds of the general formula I can be determined as follows.
(§1) In this activity assay the L-citrulline which is a coproduct of the formation of NO by purified NOS is quantitatively measured. ^3H-radiolabeled L-arginine is employed as substrate of the enzyme reaction and is converted into ^3H-L-citrulline and NO. After completion of the enzyme incubation, generated L-citrulline is removed from unused L-arginine by ion exchange chromatography from the reaction mixture; the ^3H activity measured by liquid scintillation then is corresponds to the amount of L-citrulline, which is a direct measure of the activity of NOS.
The basic medium for carrying out the enzyme reaction is TE buffer (triethanolamine, EDTA, pH 7.0).
The final volume of each incubation is 100 μl. The reaction mixture is obtained by mixing the following 6 components on ice: • 1. “REA-Mix” (pH 7.0) which contains triethanolamine, calcium chloride, magnesium chloride, EDTA, L-arginine, calmodulin and flavin adenine dinucleotide (FAD); • 2. freshly prepared stock solution of β-nicotinamide adenine dinucleotide phosphate, reduced form (NADPH); • 3. (6R)-5,6,7,8-tetrahydro-L-biopterin dihydro-chloride stock solution (BH4) or —for experiments without BH4-instead TE buffer; • 4. purified NO synthase from pig cerebellum or from pig liver; • 5.
(§2) After mixing of the components on ice, the reaction mixture was immediately incubated in a water bath at 37° C. for 15 minutes. […] After this incubation time, the reaction was stopped by addition of 900 μl of ice-cold “stop buffer” (20 mM sodium acetate, 2 mM EDTA, pH 5.5), and the mixture (total volume now 1.0 ml) was placed on ice. To remove the unreacted ^3H-L-arginine, the mixture was loaded onto an ion exchange column with 0.8 ml of Dowex AG 50 WX-8 (100-200 mesh) which has previously been washed and equilibrated with 2 ml of stop buffer. After loading of the sample, the column was eluted twice with 1 ml of water each time. The flow-through of the sample and the eluate were collected in scintillation vessels and […] (total volume 3 ml). 9 ml of scintillator solution were added to the 3 ml of aqueous measurement solution, and the homogeneous mixture was measured in a Tricarb 2500 TR (Packard) liquid scintillation counter for 1 minute for each sample. […] Each substance was tested for an antagonistic effect in a concentration of 100 μM in the presence of 2 μM tetrahydrobiopterin, and for an agonistic effect on NOS in the absence of tetrahydrobiopterin.
All incubations were carried out on triplicates. Each experiment was repeated three times with different enzyme preparations.

[2] = tested on: purified NO synthase from pig cerebellum or from pig liver; experiment: as above; assay type: biochemical; conditions: incubated in the presence of 5 kU/ml catalase for 45 minutes
[3] = target: NOS-I (Homo sapiens, UniProt P29475); experiment: Inhibition of human NOS isoforms: NOS-I; assay type: biochemical
Method: as §1, §2
In addition, the relative selectivities of the antipterin inhibitors for the three known human NOS isoforms were measured. So doing, the IC50 values for NOS-II/NOS-I and NOS-III/NOS-I were formed (compare Table 2).

[4] = target: NOS-II (Homo sapiens, UniProt P35228); experiment: Inhibition of human NOS isoforms: NOS-II; assay type: biochemical
Method: (§3) After mixing of the components on ice, the reaction mixture was immediately incubated in a water bath at 37° C. for 15 minutes. […] After this incubation time, the reaction was stopped by addition of 900 μl of ice-cold “stop buffer” (20 mM sodium acetate, 2 mM EDTA, pH 5.5), and the mixture (total volume now 1.0 ml) was placed on ice. To remove the unreacted ^3H-L-arginine, the mixture was loaded onto an ion exchange column with 0.8 ml of Dowex AG 50 WX-8 (100-200 mesh) which has previously been washed and equilibrated with 2 ml of stop buffer. After loading of the sample, the column was eluted twice with 1 ml of water each time. The flow-through of the sample and the eluate were collected in scintillation vessels and […] (total volume 3 ml). 9 ml of scintillator solution were added to the 3 ml of aqueous measurement solution, and the homogeneous mixture was measured in a Tricarb 2500 TR (Packard) liquid scintillation counter for 1 minute for each sample. […] In addition, the relative selectivities of the antipterin inhibitors for the three known human NOS isoforms were measured. So doing, the IC50 values for NOS-II/NOS-I and NOS-III/NOS-I were formed (compare Table 2).

[5] = target: NOS-III (Homo sapiens, UniProt P29474); experiment: Inhibition of human NOS isoforms: NOS-III; assay type: biochemical
Method: as §3

[6] = tested on: intact rat alveolar macrophages; conditions: cited from earlier work

Compound	Remaining activity (% of Vmax) [1]	IC50 [2] [µM]	Activity (% of control) [3]	Activity (% of control) ([4]; human NOS-II)	Activity (% of control) ([5]; human NOS-III)	other results
2-amino-4-(dibenzylamino)-6-(3,4-dimethoxyphenyl)-pteridine hemihydrate [Example 22]	0 % of Vmax	2				
2-amino-4-(diethylamino)-6-(4-chlorophenyl)-5,6,7,8-tetrahydropteridine dihydrochloride hemi-hydrate [Example 48]	0 % of Vmax	8	2 ± 0 % of control	74 ± 4 % of control	27 ± 1 % of control	IC50 [3]: 41.5 µM; IC50 ([4]; human NOS-II, enzyme inhibition not complete up to 300 μM, IC50 values extrapolated): 300 µM; Ratio NOS-II/I ([4]; ratio of IC50 values NOS-II/NOS-I): 7.2; IC50 ([5]; human NOS-III): 45.4 µM; Ratio NOS-III/I ([5]; ratio of IC50 values NOS-III/NOS-I): 1.1
Nc1nc(N(Cc2ccccc2)Cc2ccccc2)c2nc(-c3ccc(Cl)cc3)cnc2n1.O.O [Example 20, 2-amino-4-(dibenzylamino)-6-(4-chlorophenyl)-pteridine dihydrate]	0 % of Vmax	3.5				
COc1ccc(-c2cnc3nc(N)nc(N(Cc4ccccc4)Cc4ccccc4)c3n2)cc1 [Example 21, 2-amino-4-(dibenzylamino)-6-(4-methoxyphenyl)-pteridine]	0 ± 0.05 % of Vmax		27 ± 1 % of control	81 ± 6 % of control	68 ± 2 % of control	
CCCN(CCC)c1nc(N)nc2c1NC(c1ccccc1)CN2.Cl.Cl.Cl.O (centres unmarked) [Example 46, 2-amino-4-(di-n-propylamino)-6-phenyl-5,6,7,8-tetrahydropteridine trihydrochloride hydrate]	8 ± 0.05 % of Vmax		1 ± 0.1 % of control	68 ± 1 % of control	27 ± 0.2 % of control	
CCCN(CCC)c1nc(N)nc2c1NC(c1ccc(OC)cc1)CN2.Cl.Cl.O.O (centres unmarked) [Example 47, 2-amino-4-(di-n-propylamino)-6-(4-methoxyphenyl)-5,6,7,8-tetrahydropteridine dihydrochloride dihydrate]	0 % of Vmax		0 ± 0.1 % of control	78 ± 0.4 % of control	31 ± 3 % of control	
Nc1nc(NCC2CCCCC2)c2c(n1)NCC(c1ccc(Cl)cc1)N2 (centres unmarked) [Example 49, 2-amino-4-(cyclohexylmethylamino)-6-(4-chloro-phenyl)-5,6,7,8-tetrahydropteridine dihydro-chloride hydrate]	0 % of Vmax		0 ± 0.1 % of control	78 ± 6 % of control	18 ± 1 % of control	
Nc1nc2ncc(C(=O)O)nc2c(=O)[nH]1 [Pterin-6-carboxylic acid]						inhibition of NO production [6]: no effect
C[C@H](O)C(=O)C1=Nc2c(nc(N)[nH]c2=O)NC1 [sepiapterin]						inhibition of NO production [6]: inhibition of NO production

— patent US6844343B1, “N-substituted 4-aminopteridines, synthesis and use thereof as pharmaceutical agent” (Vasopharm Biotech GmbH, priority 1999, dated 2005)
